The source of these data is PMC4079752 (Clinical cancer research : an official journal of the …, 2014).

The assay concerns the target bacterial β-glucuronidase (E. coli GUS) (Escherichia coli, UniProt P05804). The experiment in a line: GUS enzyme activity assay with purified enzyme. It counts as biochemical.

Sequence of bacterial β-glucuronidase (E. coli GUS) (P05804 whole entry): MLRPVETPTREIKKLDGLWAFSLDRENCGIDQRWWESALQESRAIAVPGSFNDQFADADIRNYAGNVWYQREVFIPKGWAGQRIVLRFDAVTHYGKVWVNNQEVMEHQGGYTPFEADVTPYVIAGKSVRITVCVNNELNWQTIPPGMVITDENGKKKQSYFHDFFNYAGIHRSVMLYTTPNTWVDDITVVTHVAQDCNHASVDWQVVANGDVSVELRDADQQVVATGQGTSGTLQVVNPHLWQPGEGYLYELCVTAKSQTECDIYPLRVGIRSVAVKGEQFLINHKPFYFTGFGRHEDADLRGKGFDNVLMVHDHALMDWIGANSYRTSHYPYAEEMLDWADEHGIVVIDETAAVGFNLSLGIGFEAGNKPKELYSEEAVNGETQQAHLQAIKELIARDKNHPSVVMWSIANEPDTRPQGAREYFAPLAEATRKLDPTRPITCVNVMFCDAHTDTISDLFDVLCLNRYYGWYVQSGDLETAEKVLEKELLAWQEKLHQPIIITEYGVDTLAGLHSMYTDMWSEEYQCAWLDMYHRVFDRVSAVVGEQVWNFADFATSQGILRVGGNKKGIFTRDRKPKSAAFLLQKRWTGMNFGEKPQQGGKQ

For orientation: IC50 means the concentration that inhibits the measured activity by half. Lower therefore signals greater potency in that assay. For `Oc1ccc2c(c1)Oc1ccc(Cl)cc1C(N1CCNCC1)=N2` [7-OHAMOX, 7-hydroxyamoxapine], 0.981 ± 0.183 µM corresponded to half-maximal inhibition (IC50).
`Oc1ccc2c(c1)N=C(N1CCNCC1)c1cc(Cl)ccc1O2` [8-OHAMOX, 8-hydroxyamoxapine] yielded an IC50 of 1.99 µM.
